From publication PMC9181915, “Synthesis and Anti-Neuroinflammatory Activity of 1,7-diphenyl-1,4-heptadien-3-ones in LPS-Stimulated BV2 Microglia Via Inhibiting NF-κB/MAPK Signaling Pathways” (Molecules, 2022)

Legend:
[1] = MTT cell viability assay in BV2 microglia cells; type: cell-based; details: mouse, mean ± SD, n = 3
Description: (§1) The BV2 microglial cells were purchased from the China Center for Type Culture Collection, CCTCC (Wuhan, Hubei). BV2 microglia cells were incubated in DMEM media supplemented with 10% (v/v) FBS, 100 U/mL penicillin G and […] streptomycin at 37 °C with 5% CO2.
Cell viability assays were evaluated using a 3-(4,5-dimethylthiazol-2-yl)-2,5-diphenyltetrazolium bromide (MTT) assay. BV2 microglia cells were seeded in 96-well plates at a density of 1.6 × 10^5 cells/well in complete medium and incubated for 24 h. Then, the culture medium was sucked and discarded, and sterile PBS was added for washing, and then PBS was removed. Then the cells were treated with different concentrations of target compounds for 24 h. An amount equal to 100 μL of MTT was added to each well and the cells were further incubated for 2–4 h. An amount equal to 150 μL of DMSO was added into a 96-well plate and vibrated with micro-oscillator for 10 min. The optical density (A) was measured at […] on a microplate reader. The inhibitory rate of the various concentrations of agents in BV2 cells was calculated using the following formula:Cell viability (%) = [A492 (sample) − A492 (blank)]/[A492 (control) − A492 (blank)] × 100%

[2] = system: LPS-induced NO release in BV2 cells; test: Inhibition of LPS-induced NO release in BV2 cells; type: cell-based; details: Mus musculus, BV-2; for inhibition at 3 µM: pretreated 1 h, then LPS 1 μg/mL for 24 h, BV2 cells; for IC50: BV2 cells, 0.3, 1.0, 3.0 μM, LPS 1 μg/mL 24 h, mean ± SD, n = 3, read-out: IC50 to inhibit LPS-induced NO release
Description: as §1
Nitrite, a stable product of nitric oxide, was used to assess NO production. To study the effects of the compounds on NO production, BV2 microglia cells in the logarithmic phase were plated at 1 × 10^5 cells/well in a 24-well microplate and incubated in DMEM medium (10% FBS) overnight. The cells were pretreated with various concentrations of the test compounds for 1 h and further co-cultured with 1 μg/mL LPS and 5% CO2 for 24 h in a 37 °C incubator; then, the supernatant was taken and stored at −20 °C for NO detection. The target compound and LPS were configured with DMEM medium (2% FBS). The determination of NO was carried out according to the instructions. Unpretreated and unstimulated BV2 microglia cells were conducted as the blank control group. The absorbance value was determined at 540 nm, and the corresponding NO content was calculated by using the standard curve. The NO inhibitory rate of the various concentrations of agents in BV2 cells was calculated as per the following formula:Inhibition rate (%) = (LPS(NO concentration) − sample(NO concentration))/(LPS(NO concentration) − negative control(NO concentration)) × 100%.

JNK = test: LPS-induced JNK phosphorylation in BV2 cells (Western blot); type: cell-based; details: 3 μM, 1 h pretreatment, LPS 1 μg/mL 24 h
Description: (§2) CU-19, CU-21 and LPS were configured with DMEM medium (2% FBS). The cells were collected and washed three times with ice-cold PBS. The lysate (containing 1% protease inhibitor and phosphatase inhibitor) was added to the collected cells for suspension, and the cells were lysed by ultrasonic crusher. Then the cell lysates were centrifuged (14,000 rpm, 10 min, 4 °C) […] and collect the supernatant. Aliquots of the lysates were separated on 10% sodium dodecyl sulphate (SDS)-polyacrylamide gel electrophoresis (PAGE) and then electro blotted onto a polyvinylidene difluoride (PVDF) membrane. The blots were blocked with 5% (w/v) nonfat dry milk for 2 h at room temperature, followed by incubation with specific primary antibodies at 4 °C overnight. Blots were washed with PBST and incubated with secondary antibody for 2 h, after which an ECL reagent was used for chemiluminescent detection.

ERK = test: LPS-induced ERK phosphorylation in BV2 cells (Western blot); type: cell-based; details: 3 μM, 1 h pretreatment, LPS 1 μg/mL 24 h
Description: as §2

p38 = test: LPS-induced p38 phosphorylation in BV2 cells (Western blot); type: cell-based; details: 3 μM, 1 h pretreatment, LPS 1 μg/mL 24 h
Description: as §2

[3] = In vivo pharmacokinetic study in rats; set-up: species or system Sprague–Dawley male rats; details: for AUC(0-inf) / AUC(0-t) / Cmax / half-life / MRT last / MRT inf: male, Sprague-Dawley, rat plasma, mean ± SD, n = 4; for AUC(0-inf) / AUC(0-t) / Cmax / half-life / MRT last / MRT inf / Increase of T1/2 in comparison with that of CU: single intravenous dose 20 mg/kg; for MRT last: read-out: MRT (0-t) (converted); for MRT inf: read-out: MRT (0-∞) (converted); for Metabolites detected in plasma by HPLC: rat plasma after intravenous 20 mg/kg, chromatograms at 5, 10, 20 min (Figures S1–S9); for Increase of T1/2 in comparison with that of CU: rat
Description: After a single intravenous dose of 20 mg/kg, 0.5 mL of blood was obtained from the fossa orbitalis veniplex of rats at 5, 10, 20, 30, 45, 60, 120, 180 and 240 min. HPLC was used to determine the concentration of each compound in plasma and the DAS software was used for the noncompartmental pharmacokinetic analysis of the plasma concentration–time data.
Sprague–Dawley male rats, 200–240 g, were housed in cages in an airconditioned room with light dark cycle of 12 h before the experiment started. The animals were fasted for 12 h with water ad libitum. […] The administration volume was 6 mL per kg of body weight. The compounds were dissolved in PEG400 (10% of the administration volume) and water (90% of the administration volume) and sonicated for 30 min. After tail vein injection administration at a dose of 20 mg/kg, 0.5 mL blood was obtained from fossa orbitalis veniplex of rats at 5, 10, 20, 30, 45, 60, 120, 180 and 240 min. Whole blood samples were collected in heparinized tubes and the plasma was immediately centrifuged (10,000 rpm, 10 min, 4 °C) and then stored at −20 °C until analysis. The calibration standards and the plasma samples were extracted by protein precipitation using methanol.

IL-6 = test: LPS-induced IL-6 release in BV2 cells (ELISA); type: cell-based, mouse; details: 3 µM, 1 h pretreatment, LPS 1 μg/mL 24 h, vs. LPS alone
Description: (§3) BV2 microglia cells were seeded at 1 × 10^5 cells/well in a 24-well microplate and incubated overnight. […] CU-19, CU-21 and LPS were configured with DMEM medium (2% FBS). According to the protocol of the manufacturer, supernatant was harvested at the 24th hour for the assay of IL-6, TNF-α and PGE-2 with ELISA kits (Absin Shanghai, China). Briefly, 100 μL of biotinylated antibody reagent and the culture supernatant were added to anti-mouse IL-6, TNF-α and PGE-2-precoated 96-well plates, and the plates were incubated for 2.5 h at room temperature. The plate was washed with a washing buffer and subsequently incubated with 100 μL of the streptavidin–HRP solution for 20 min at room temperature. The plate was washed and incubated with 100 μL of TMB substrate solution for 20 min at room temperature in the dark. The reaction was stopped by adding 50 μL of stop solution, and then the absorbance was measured at 450 nm by a plate reader. The average value was substituted into the standard curve to obtain the […] concentration.

TNF-α = test: LPS-induced TNF-α release in BV2 cells (ELISA); type: cell-based, mouse; details: 3 µM, 1 h pretreatment, LPS 1 μg/mL 24 h, vs. LPS alone
Description: as §3

PGE-2 = test: LPS-induced PGE-2 release in BV2 cells (ELISA); type: cell-based, mouse; details: 3 µM, 1 h pretreatment, LPS 1 μg/mL 24 h, vs. LPS alone
Description: as §3

iNOS = test: LPS-induced iNOS expression in BV2 cells (Western blot); type: cell-based; details: 3 μM, 1 h pretreatment, LPS 1 μg/mL 24 h
Description: as §2

COX-2 = test: LPS-induced COX-2 expression in BV2 cells (Western blot); type: cell-based; details: 3 μM, 1 h pretreatment, LPS 1 μg/mL 24 h
Description: as §2

NF-κB = test: LPS-induced NF-κB nuclear translocation in BV2 cells (immunofluorescence); type: cell-based; details: 3 μM with LPS, 24 h
Description: CU-19, CU-21 and LPS were configured with DMEM medium (2% FBS). After 24 h of treatment, cells were fixed with 4% paraformaldehyde for 18 min and washed three times with PBS (5 min per wash). The fixed cells were then permeabilized in […] for 15 min and washed three times with PBS (5 min per wash). Nonspecific binding sites were blocked with 5% goat serum for 30 min. These cells were then incubated with anti-NF-κB antibody at a dilution of 1:400 overnight at 4 °C. After washing with PBS three times, cells were incubated with fluorescent-conjugated secondary antibody (1:150) for 1 h, and counterstained with DAPI (1:50) at room temperature for 15 min in the dark. Cells were then washed and imaged via confocal microscopy.

## COc1cc(/C=C/C(=O)CC(=O)/C=C/c2ccc(O)c(OC)c2)ccc1O [CU, curcumin, reference compound]
[1]
  viability at 24 h, 1 µM: 97.57 ± 0.05%
  viability at 24 h, 3 µM: 95.26 ± 0.05%
  viability at 24 h, 10 µM: 28.15 ± 0.19%
[2]
  inhibition at 3 µM: 37.4%
  IC50: > 3 µM
JNK
  JNK phosphorylation compared to the LPS group: inhibited
ERK
  ERK phosphorylation compared to the LPS group: inhibited
p38
  p38 phosphorylation compared to the LPS group: inhibited
[3]
  AUC(0-inf): 678 ng·h/mL
  AUC(0-t): 652 ng·h/mL
  Cmax: 2450 ± 132 ng/mL
  half-life: 0.412 ± 0.282 h
  MRT last: 0.235 h
  MRT inf: 0.342 h

## COc1ccc(/C=C/C(=O)/C=C/CCc2ccccc2)cc1OC [CU-19, (1E,4E)-1-(3,4-dimethoxyphenyl)-7-phenyl-1,4-heptadien-3-one]
[1]
  viability at 24 h, 1 µM: 96.94 ± 0.03%
  viability at 24 h, 3 µM: 96.33 ± 0.02%
  viability at 24 h, 10 µM: 67.91 ± 0.37%
[2]
  inhibition at 3 µM: 50.3%
  IC50: 1.6 ± 0.31 µM
IL-6
  Inhibition of LPS-induced IL-6 release: significantly inhibited
TNF-α
  Inhibition of LPS-induced TNF-α release: significantly inhibited
PGE-2
  Inhibition of LPS-induced PGE-2 release: significantly inhibited
iNOS
  Inhibition of LPS-induced iNOS expression: significantly inhibited
COX-2
  Inhibition of LPS-induced COX-2 expression: significantly inhibited
NF-κB
  Inhibition of LPS-induced NF-κB nuclear translocation: able to inhibit NF-κB nuclear translocation
JNK
  JNK phosphorylation compared to the LPS group: significantly decreased
ERK
  ERK phosphorylation compared to the LPS group: significantly decreased
p38
  p38 phosphorylation compared to the LPS group: significantly decreased
[3]
  AUC(0-inf): 2220 ng·h/mL
  AUC(0-t): 1770 ng·h/mL
  Cmax: 3330 ± 393 ng/mL
  half-life: 2.25 ± 0.104 h
  MRT last: 1.02 h
  MRT inf: 2.12 h
  Metabolites detected in plasma by HPLC: no obvious metabolites
  Increase of T1/2 in comparison with that of CU: 4.5 fold

## COc1ccc(CC/C=C/C(=O)/C=C/c2ccccc2)cc1 [CU-21, (1E,4E)-7-(4-methoxyphenyl)-1-phenyl-1,4-heptadien-3-one]
[1]
  viability at 24 h, 1 µM: 96.94 ± 0.01%
  viability at 24 h, 3 µM: 94.55 ± 0.09%
  viability at 24 h, 10 µM: 77.89 ± 0.5%
[2]
  inhibition at 3 µM: 66.1%
  IC50: 1.74 ± 0.66 µM
IL-6
  Inhibition of LPS-induced IL-6 release: significantly inhibited
TNF-α
  Inhibition of LPS-induced TNF-α release: significantly inhibited
PGE-2
  Inhibition of LPS-induced PGE-2 release: significantly inhibited
iNOS
  Inhibition of LPS-induced iNOS expression: significantly inhibited
COX-2
  Inhibition of LPS-induced COX-2 expression: significantly inhibited
NF-κB
  Inhibition of LPS-induced NF-κB nuclear translocation: able to inhibit NF-κB nuclear translocation
JNK
  JNK phosphorylation compared to the LPS group: significantly decreased
ERK
  ERK phosphorylation compared to the LPS group: significantly decreased
p38
  p38 phosphorylation compared to the LPS group: significantly decreased
[3]
  AUC(0-inf): 3530 ng·h/mL
  AUC(0-t): 2830 ng·h/mL
  Cmax: 6850 ± 634 ng/mL
  half-life: 2.72 ± 0.613 h
  MRT last: 0.757 h
  MRT inf: 2.32 h
  Metabolites detected in plasma by HPLC: no obvious metabolites
  Increase of T1/2 in comparison with that of CU: 5.5 fold
other
  melting point: 58 to 60 °C

## O=C(/C=C/CCc1cccc(O)c1)/C=C/c1ccccc1 [CU-24, (1E,4E)-7-(3-hydroxyphenyl)-1-phenyl-1,4-heptadien-3-one]
[1]
  viability at 24 h, 1 µM: 103.49 ± 0.02%
  viability at 24 h, 3 µM: 91.48 ± 0.07%
  viability at 24 h, 10 µM: 23.17 ± 0.09%
[2]
  inhibition at 3 µM: 0%
other
  melting point: 70 to 72 °C

## O=C(/C=C/CCc1ccc(O)cc1)/C=C/c1ccccc1 [CU-25, (1E,4E)-7-(4-hydroxyphenyl)-1-phenyl-1,4-heptadien-3-one]
[1]
  viability at 24 h, 1 µM: 128.6 ± 0.14%
  viability at 24 h, 3 µM: 96.93 ± 0.01%
  viability at 24 h, 10 µM: 20.3 ± 0.59%
[2]
  inhibition at 3 µM: 0%
other
  melting point: 75 to 77 °C

## COc1cc(CC/C=C/C(=O)/C=C/c2ccccc2)ccc1O [CU-26, (1E,4E)-7-(4-hydroxy-3-methoxyphenyl)-1-phenyl-1,4-heptadien-3-one]
[1]
  viability at 24 h, 1 µM: 107.17 ± 0.07%
  viability at 24 h, 3 µM: 96.83 ± 0.02%
  viability at 24 h, 10 µM: 12.8 ± 0.14%
[2]
  inhibition at 3 µM: 37.6%
other
  melting point: 72 to 74 °C

## O=C(/C=C/CCc1ccc(Cl)cc1)/C=C/c1ccccc1 [CU-28, (1E,4E)-7-(4-chlorophenyl)-1-phenyl-1,4-heptadien-3-one]
[1]
  viability at 24 h, 1 µM: 95.71 ± 0.07%
  viability at 24 h, 3 µM: 94.75 ± 0.05%
  viability at 24 h, 10 µM: 81.65 ± 0.22%
[2]
  inhibition at 3 µM: 33.6%
other
  melting point: 48 to 50 °C
